In US5179109A (priority 1988, dated 1993):
pIC50: −log10 of the molar value.

Columns and labels:
[1] = target: cerebral cholinergic muscarinic receptor; assay type: binding, rat; settings: for pIC50: rat brain homogenate, read-out: ^3 HQNB IC50; for ^3 HQNB/^3 HTCP: ratio of IC50
site of TCP = assay: Affinity for the TCP site, competition with (^3 H)TCP on rat brain homogenates; assay type: binding; settings: rat brain homogenate, pH 7.7, 25° C., 1 nmole tritiated ligand; read-out: ^3 HTCP IC50
receptor of the opiates = target: T1, receptor of the opiates (Rattus norvegicus, UniProt P33535); assay: Competition test with ^3 H-DHM for the receptor of the opiates; assay type: binding
T1 construct: variable concentrations of the tested compound and a rat brain homogenate; from tissue; host or cells: rat brain homogenate
T1 sequence (P33535 whole entry): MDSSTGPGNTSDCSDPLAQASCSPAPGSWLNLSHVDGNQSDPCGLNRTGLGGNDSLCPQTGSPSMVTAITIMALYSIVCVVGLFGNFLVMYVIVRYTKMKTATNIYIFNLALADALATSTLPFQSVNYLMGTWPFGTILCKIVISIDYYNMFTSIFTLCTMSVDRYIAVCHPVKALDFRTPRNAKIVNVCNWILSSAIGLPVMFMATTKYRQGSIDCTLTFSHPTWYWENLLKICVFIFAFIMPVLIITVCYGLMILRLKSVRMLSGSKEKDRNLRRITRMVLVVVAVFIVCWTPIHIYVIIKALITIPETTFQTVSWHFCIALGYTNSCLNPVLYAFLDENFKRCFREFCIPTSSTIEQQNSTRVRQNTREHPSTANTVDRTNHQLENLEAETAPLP
Experimental: In this test, a fixed concentration of ^3 H-DHM labelled morphine was incubated in the presence of variable concentrations of the tested compound and a rat brain homogenate. The concentration of the compound preventing the fixing of 50% of ^3 H-DHM (IC50) is a measure of the affinity of the compound for the receptor of the opiates. The latter also gives the results obtained with PCP and TCP, as well as the ratios H^3 DA/^3 H-TCP, ^3 HQNB/^3 H-TCP and ^3 HDHM/^3 HTCP obtained with the different tested compounds.

Purkinje cells = assay: Cerebral aging in mice, histology of the cerebellum; assay type: in vivo; settings: 5 mg/kg intraperitoneal at 23rd, 24th and 25th months; 26th month
Experimental: (§1) This example illustrates the effect of arylcyclohexylamines on cerebral aging. No matter what the cause of the cerebral aging (vascular or degenerative), it leads to a neuronal loss at the cerebral cortex, the hippocampas and to a lesser extent the cerebellum. This cellular loss can be quantified by simple histological methods and evaluated on a larger scale by means of semi-automatic image analysis methods.
(§2) In this example 6 mice aged 23 months by intraperitonealy injecting 3 of them with 5 mg/kg of TCP in the physiological solute at the 23rd, 24th and 25th months and 3 other mice were intraperitonealy injected with the physiological solute only. At the 26th month, all the mice were sacrificed by intracardial perfusion of a 5% glutaraldehyde solution, the brains were cut up with the vibratone and the sections dyed by the NISSL method.
(§3) The results obtained are given in FIGS. 2 to 5, which are sections of the brain and the cerebellum of the treated mice and the untreated control mice.

[2] = tested on: cortical and hippocampal neurons; assay: In vitro neuron culture survival after 2 months, count of neurons (Example 23); assay type: cell-based, rat; settings: single dose at start of third week; TCP 2.5 and 20, compound 9 and MK801 2.5 and 5 μmole/l; control 50 neurons/mm^2
Experimental: This example also illustrates the effect of the arylcyclohexylamines according to the invention on the in vitro neuron culture survival. As in example 21, cortical and hippocampal neuron cultures are prepared. At the start of the third culturing week, the cells are treated with a single dose of the compound to be tested and culturing is continued for two months. At the end of this period, the cells which were fixed and dyed to reveal the specific enolase of the neurons are subject to counts in order to determine the quantity of cells per surface unit.
The results obtained are given in FIG. 1, which is a histogram indicating the number of cells/mm^2 which survived after 2 months culturing.
The results are given for the control, i.e. for untreated cultures, cultures treated with 2.5 and 20 μmole/l of TCP, cultures treated by compound no. 9 at concentrations of 2.5 and 5 μmole/l and cultures treated by compound MK801 at concentrations of 2.5 and 5 μmole/l. Compound MK801, which is known to have a neuroprotection activity, is (+)-methyl-5-dihydro-10,11(5H)dibenzo(A,D) cyclohepteneimine-5,10 of formula: [drawing 38] From FIG. 1 it can be seen that the control cultures, after surviving for 2 months, on average contain 50 neurons/mm^2. The treated cultures, no matter what the compound and dose used, contain more than 500 neurons/mm^2.

site of PCP = assay: Affinity for the PCP site, competition with (^3 H)PCP on rat brain homogenates; assay type: binding; settings: rat brain homogenate, pH 7.7, 25° C., 1 nmole tritiated ligand
[3] = tested on: synaptosomal striatal (^3 H)DA capture; assay: Inhibition test of the synaptosomal striatal sample (capture) of (^3 H)DA; assay type: biochemical, Wistar rats
Experimental: This test is carried out according to the method used by Vignon and Lazdunski operating in the following way. Wistar rats weighing 200 to 250 g are killed by cervical dislocation. Their brains are rapidly removed and the striae dissected on ice. The striae are then homogenized with a Teflon glass Potter homogenizer in 50 volumes of tris HCl 10 mM buffer containing 0.32M of sucrose at pH 7.4 and they are centrifuged at 1000 g for 10 min. The supernatants are further centrifuged at 10000 g for 20 min. The resulting deposits P2 containing the crude synaptosomes are used without supplementary purification.
The synaptosomes are balanced with the compound to be tested for 30 min at 30° C. in the Ringer medium (mM: 140 NaCl, 5 KCl, 2.6 CaCl2, 1.3 MgSO4, 10 tris-HCl, pH=7.4)+200 μM of pargyline. This is followed by the addition of (^3 H)DA labelled dopamine at a final concentration of 5 nM for 5 min at 30° C. and sampling is interrupted by filtration of the incubate (150 μl) on GF/B filters. The non-specific sample is measured at 4° C. in parallel incubations and is deducted from the total sample at 30° C. The IC50 is the compound concentration preventing 50% of the specific capture compared with the control in the absence of an inhibitor.

[4] = tested on: pyramidal cells Ca3 of Ammon's horn; assay: Cerebral aging in mice, histology of the hippocampus; assay type: in vivo; settings: 5 mg/kg intraperitoneal at 23rd, 24th and 25th months; 26th month
Experimental: as §1, §2, §3

Swiss mice = assay: Simple rotary bar test (dose at which 50% of the animals drop); assay type: in vivo; settings: Mus musculus, sc; Swiss mice, subcutaneous, dose at which 50% of the animals drop; read-out: ED50
Experimental: In this example, the properties of compounds 1 to 5 and 8 to 11 are tested on Swiss mice.
Different doses of the compounds to be tested are administered subcutaneously to the mice and the latter are then placed in batches of 10 on a rotary bar, being separated from one another by separating disks. This bar is made from scraped wood, has a diameter of 3 cm and is moved horizontally with a uniform circular movement about its axis at a speed of 10 rpm.
Determination takes place of the ED50, which is the dose at which 50% of the animals drop, the dose being expressed in mg/kg.

[5] = Subcutaneous LD50 in the rat; settings: in vivo, sc

| Structure (SMILES) | pIC50 [1] | ^3 HQNB/^3 HTCP [1] | pIC50 (site of TCP) | pIC50 (receptor of the opiates; rat brain homogenate, read-out: ^3 HDHM IC50) | ^3 HDHM/^3 HTCP (receptor of the opiates; ratio of IC50) | rarefication of the Purkinje cells at the cerebellum versus untreated (Purkinje cells) | number of neurons which survived after 2 months culturing [2] | pIC50 (site of PCP) | pIC50 ([3]; rat striatal synaptosomes, 5 nM (^3 H)DA, 5 min at 30° C., pH 7.4, read-out: ^3 HDA IC50) | ^3 HDA/^3 H-TCP ([3]; ratio of IC50) | rarefaction of the pyramidal cells Ca3 of Ammon's horn versus untreated [4] | ED50 (Swiss mice) | LD50 [5] |
| --- | --- | --- | --- | --- | --- | --- | --- | --- | --- | --- | --- | --- | --- |
| c1csc(C2(N3CCCCC3)CCCCC2)c1 [TCP, ((2-thienyl)-1 cyclohexyl)-N-piperidine, reference compound] | 4.68 | 333 | 7.20 | 4.96 | 74.6 | much less significant | more than 500 neurons/mm^2 | 7.59 | 5.80 | 25.39 | much less marked | 2.3 mg/kg | – |
| OCC1CCCN(C2(c3ccccc3)CCCCC2)C1 (centres unmarked) [compound 4, [(hydroxymethyl-3piperidino)-1]-1phenyl-1 cyclohexane] | 4.00 | 100 | – | – | – | – | – | 6.00 | – | – | – | 1.8 mg/kg | > 60 mg/kg |
